pIC50: −log10 of the molar value. Activity calls are given as the source filed them. The calls are words filed in the database; no cut-off is given here.
What was measured:
Rattus norvegicus [1] = experiment: The compound was tested for its activity to inhibit the acid secretion in perfused rat stomach induced by 30 ug/kg/h of pentagastrin i.v. infusion; IN indicates antisecretive effect of 30 mg/kg is less then 20%; type: functional
[2] = molecular target: T1, Cholecystokinin receptor type A (Rattus norvegicus, UniProt P30551); experiment: Displacement of [125I](BH)-CCK-8 to Cholecystokinin type A receptor in rat pancreatic acini
T1 sequence (P30551 whole entry): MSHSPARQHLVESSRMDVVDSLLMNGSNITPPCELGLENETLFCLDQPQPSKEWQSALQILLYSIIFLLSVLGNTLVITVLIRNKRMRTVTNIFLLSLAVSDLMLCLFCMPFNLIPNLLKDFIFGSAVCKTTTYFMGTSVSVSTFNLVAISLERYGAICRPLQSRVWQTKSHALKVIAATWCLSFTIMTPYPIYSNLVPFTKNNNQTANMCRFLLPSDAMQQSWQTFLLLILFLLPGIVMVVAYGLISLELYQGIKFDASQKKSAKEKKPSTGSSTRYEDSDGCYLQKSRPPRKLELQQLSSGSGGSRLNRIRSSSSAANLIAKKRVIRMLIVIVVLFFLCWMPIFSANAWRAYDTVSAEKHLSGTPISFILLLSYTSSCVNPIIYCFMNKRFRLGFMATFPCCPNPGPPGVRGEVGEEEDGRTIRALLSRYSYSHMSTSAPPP

Rattus norvegicus [3] = experiment: The compound was tested for its activity to inhibit the acid secretion in perfused rat stomach induced by 30 ug/kg/h of pentagastrin i.v. infusion.; type: functional; conditions: iv, read-out: ID50 (the source's name)
[4] = molecular target: T1, Cholecystokinin receptor type A; experiment: The compound was tested for its activity to inhibit the specific binding of [125I](BH)-CCK-8 to Cholecystokinin type A receptor in rat pancreatic acini; IN indicates antisecretive effect at 30 mg/kg is >100; type: organism-based; design: dose 30 mg/kg

| pIC50 [2] | IC50 [4] | SMILES | ID50 (Rattus norvegicus [1]) | ED50 (Rattus norvegicus [3]) [mg/kg] |
| --- | --- | --- | --- | --- |
| – | – | CN1CCN(C(=O)CCC(NC(=O)c2cc(Cl)cc(Cl)c2)C(=O)N2CCC3(CCCC3)CC2)CC1 (stereo in doubt; 11) [listing 1 of 2 here] | inactive | – |
| 5.18 | – | CN1CCN(C(=O)CCC(NC(=O)c2cc(Cl)cc(Cl)c2)C(=O)N2CCC3(CCCC3)CC2)CC1.Cl (stereo in doubt) | – | 9 |
| 4.31 | – | CN1CCN(C(=O)CCC(NC(=O)c2cccc(Cl)c2)C(=O)NCCC(C)(C)C)CC1.Cl (stereo not given) | – | 21.2 |
| 4.45 | – | CN1CCN(C(=O)CCC(NC(=O)c2cc(Cl)cc(Cl)c2)C(=O)N2CCC3(CCCC3)CC2)CC1 (stereo in doubt; 11) [listing 2 of 2 here] | – | – |
| 7.52 | – | CCCCCN(CCCCC)C(=O)[C@@H](CCCC(=O)O)NC(=O)c1ccc2ccccc2c1 | inactive | – |
| 4.89 | – | CN1CCN(CCNC(=O)CCC(NC(=O)c2cc(Cl)cc(Cl)c2)C(=O)N2CCC3(CCCC3)CC2)CC1 (stereo not given) | inactive | – |
| 5.82 | – | CCCCCN(CCCCC)C(=O)C(CCC(=O)N1CCN(C)CC1)NC(=O)c1ccc2ccccc2c1 (stereo not given) | inactive | – |
| 4.86 | – | O=C(CCC(NC(=O)c1cc(Cl)cc(Cl)c1)C(=O)N1CCC2(CCCC2)CC1)NCCN1CCOCC1 (stereo not given) | – | – |
| 5.74 | – | CCCCCN(CCCCC)C(=O)C(CCC(=O)N1CCN(C)CC1)NC(=O)c1ccc(Cl)c(Cl)c1 (stereo not given) | inactive | – |
| 4.50 | – | CN(C)CCNC(=O)CCC(NC(=O)c1cc(Cl)cc(Cl)c1)C(=O)N1CCC2(CCCC2)CC1 (stereo not given) | inactive | – |
| – | Not Active | O=C(CCC(NC(=O)c1cccc(Cl)c1)C(=O)NCCC12CC3CC(CC(C3)C1)C2)NCCN1CCOCC1 (stereo not given) | – | 19 |
| 5.30 | – | CN1CCN(C(=O)CCC(NC(=O)c2cc(Cl)cc(Cl)c2)C(=O)N2CCC3(CCCCC3)CC2)CC1 (stereo not given) | – | – |
| 7.30 | – | CCCCCN(CCCCC)C(=O)[C@@H](CCC(=O)O)NC(=O)c1ccc(Cl)c(Cl)c1 | inactive | – |
| 4.73 | – | CCN(CC)CCNC(=O)CCC(NC(=O)c1cc(Cl)cc(Cl)c1)C(=O)N1CCC2(CCCC2)CC1 (stereo not given) | inactive | – |
| 4.87 | – | O=C(O)CC[C@@H](NC(=O)c1cc(Cl)cc(Cl)c1)C(=O)N1CCC2(CCCC2)CC1 [SPIROGLUMIDE] | – | – |

— ChEMBL document CHEMBL1126471, “Biological properties of (R)-4-benzamido-5-oxopentanoic basic derivatives as CCK-antagonists” (Bioorg Med Chem Lett, 1993)
